Laboratory results from PMC6271467, “The Anthraquinone Derivatives from the Fungus Alternaria sp. XZSBG-1 from the Saline Lake in Bange, Tibet, China” (Molecules, 2014).

Key:
Type in all cases: cell-based
[1] = tested on: MCF-7/ADR; assay: Cytotoxicity, MTT assay, MCF-7/ADR; settings: Homo sapiens, NCI/ADR-RES, 48 h exposure, MCF-7/ADR cells
Method: (§1) Compounds 1–11 were evaluated for cytotoxic activity against several human cancer cell lines by MTT assay. […] The other compounds show no notable inhibitory activity against any tested cancer cell lines.
(§2) MCF-7/ADR, HeLa, HCT-116 cell lines were cultured in Dulbeccos’ modification Eagle’s medium (DMEM, Invitrogen, Carlsbad, CA, USA) supplemented with 10% fetal bovine serum (FBS, Hyclone, Logan, UT, USA), 2 mM L-glutamine, 100 μg/mL streptomycin and 100 U/mL penicillin (Invitrogen). The cells were incubated at 37 °C in a humidified atmosphere with 5% CO2.
(§3) Cells were harvested during logarithmic growth phase and seeded in 96-well plates at a density of 1 × 10^4 cells/mL, and cultured at 37 °C in a humidified incubator (5% CO2) for 24 h, followed by exposure to various concentrations of compounds tested for 48 h. Subsequently 20 μL of MTT (Genview, Houston, TX, USA) solution (5 mg/mL) was added to each well and mixed, the cells were then incubated for an additional 4 h. Culture supernatant was moved, 150 μL of DMSO (Sangon Biotech, Shanghai, China) was added to each well to fully dissolve the MTT-formazan crystals. Cell growth inhibition was determined by measuring the absorbance (Abs) at λ = 570 nm using a microplate reader and calculated according to the following equation: Growth inhibition = (1 − OD of treated cells/OD of control cells) × 100%
(§4) The half maximal inhibitory concentrations (IC50) were obtained from liner regression analysis of the concentration-response curves plotted for each tested compound [17, 18].

[2] = tested on: HeLa; assay: Cytotoxicity, MTT assay, HeLa; settings: Homo sapiens, 48 h exposure, HeLa cells
Method: as §1, §2, §3, §4

[3] = tested on: HCT-116; assay: Cytotoxicity, MTT assay, HCT-116; settings: Homo sapiens, 48 h exposure, HCT-116 cells
Method: as §1, §2, §3, §4

SMILES | IC50 [1] | IC50 [2] | IC50 [3]
COc1cc(O)c2c(c1)C(=O)C13OC1(C2=O)[C@H](O)[C@@H](O)[C@@](C)(O)[C@H]3O (relative stereo) [Compound 1, (1R*,2R*,3R*,4R*)-1,2,3,4,8-pentahydroxy-6-methoxy-3-methyl-1,2,3,4-tetrahydro-4a,9a-epoxyanthracene-9,10-dione] | 18.5 µM | 43.7 ± 4.02 µM | 23.2 ± 2.85 µM
COc1cc(O)c2c(c1)C(=O)C1=C(C2=O)[C@H]([C@H]2C3=C(C(=O)c4cc(OC)cc(O)c4C3=O)[C@H](O)[C@](C)(O)[C@H]2O)[C@H](O)[C@@](C)(O)[C@H]1O (relative stereo) [Compound 2, (1S*,1'S*,2R*,2'R*,3S*,3'S*,4S*,4'S*)-1,1',2,2',3,3',5,5'-octahydroxy-7,7'-dimethoxy-2,2'-dimethyl-1,1',2,2',3,3',4,4'-octahydro-[4,4'-bianthracene]-9,9',10,10'-tetraone] | > 100 µM | > 50 µM | > 50 µM
COc1cc(O)c2c(c1-c1c(OC)cc(O)c3c1C(=O)c1cc(C)c(O)cc1C3=O)C(=O)C1=C(C2=O)[C@H](O)[C@@H](O)[C@@](C)(O)[C@H]1O (relative stereo) [Compound 3, (1S*,2R*,3S*,4S*)-1,2,2',3,4,8,8'-heptahydroxy-6,6'-dimethoxy-3,3'-dimethyl-1,2,3,4-tetrahydro-[5,5'-bianthracene]-9,9',10,10'-tetraone] | – | > 50 µM | 32.4 ± 1.57 µM
COc1cc(O)c2c(c1-c1c(OC)cc(O)c3c1C(=O)c1cc(C)c(O)cc1C3=O)C(=O)C1=C(C2=O)[C@@H](O)[C@@H](O)[C@@](C)(O)[C@H]1O (relative stereo) [Compound 4, (1R*,2R*,3S*,4S*)-1,2,2',3,4,8,8'-heptahydroxy-6,6'-dimethoxy-3,3' dimethyl-1,2,3,4-tetrahydro-5,5'-bianthracene-9,9',10,10'-tetraone] | > 50 µM | > 100 µM | > 50 µM
COc1cc2c(c(-c3c(O)c(OC)cc4c3C(=O)C3=C(C4=O)[C@@H](O)[C@H](O)[C@](C)(O)[C@@H]3O)c1O)C(=O)C1=C(C2=O)[C@@H](O)[C@H](O)[C@](C)(O)[C@@H]1O [Compound 5, alterporriol E] | > 100 µM | > 100 µM | > 100 µM
COc1cc(O)c2c(c1-c1c(OC)cc(O)c3c1C(=O)C1=C(C3=O)[C@@H](O)[C@H](O)[C@](C)(O)[C@@H]1O)C(=O)C1=C(C2=O)[C@@H](O)[C@H](O)[C@](C)(O)[C@@H]1O [Compound 6, alterporriol D] | > 100 µM | > 100 µM | > 100 µM
COc1cc(O)c2c(c1)C(=O)c1cc(C)c(O)c(-c3c(OC)cc(O)c4c3C(=O)C3=C(C4=O)[C@H](O)[C@@H](O)[C@@](C)(O)[C@H]3O)c1C2=O [Compound 7, alterporriol N] | > 100 µM | > 100 µM | > 100 µM
COc1cc(O)c2c(c1-c1c(OC)cc(O)c3c1C(=O)c1cc(C)c(O)cc1C3=O)C(=O)C1=C(C2=O)[C@@H](O)[C@H](O)[C@](C)(O)[C@H]1O [Compound 8, alterporriol A] | 45 µM | > 50 µM | > 50 µM
COc1cc(O)c2c(c1)C(=O)C1=C(C[C@@H](O)[C@@](C)(O)[C@@H]1O)C2=O [Compound 9, altersolanol C] | > 100 µM | 8.09 ± 0.89 µM | 3.03 ± 0.05 µM
COc1cc(O)c2c(c1)C(=O)C1=C(C2=O)[C@H](O)[C@@H](O)[C@@](C)(O)[C@@H]1O [Compound 10, altersolanol A] | > 100 µM | > 100 µM | > 100 µM
COc1cc(O)c2c(c1)C(=O)c1cc(C)c(O)cc1C2=O [Compound 11, macrosporin] | > 100 µM | > 100 µM | > 100 µM
COc1cccc2c1C(=O)c1c(O)c3c(c(O)c1C2=O)C[C@@](O)(C(=O)CO)C[C@@H]3O[C@H]1C[C@H](N)[C@@H](O)[C@H](C)O1 [EPI, Epirubicin, reference compound] | 2.36 µM | 0.48 ± 0.03 µM | 0.96 ± 0.02 µM
